Source: patent publication US20080306107A1, “Compounds” (AstraZeneca AB, priority 2004, published 2008)

Target: T1, hVR1 (Homo sapiens, UniProt Q8NER1)
T1 construct: expressed in transfected cells
Assay: hVR1 FLIPR (Fluorometric Image Plate Reader) screening assay, IC50 determination
Format: cell-based
Details: transfected CHO cells stably expressing hVR1; Fluo-4 calcium fluorescence; agonist 50 nM capsaicin or MES buffer pH 5.2
Experimental: 1. hVR1 FLIPR (Fluorometric Image Plate Reader) Screening Assay
Transfected CHO cells, stably expressing hVR1 (15,000 cells/well) are seeded in 50 ul media in a black clear bottom 384 plate (Greiner) and grown in a humidified incubator (37° C., 2% CO2), 24-30 hours prior to experiment.
Subsequently, the media is removed from the cell plate by inversion and 2 μM Fluo-4 is added using a multidrop (Labsystems). Following the 40 minutes dye incubation in the dark at 37° C. and 2% CO2, the extracellular dye present is washed away using an EMBLA (Scatron), leaving the cells in 40 ul of assay buffer (1×HBSS, 10 mM D-Glucose, 1 mM CaCl2, 10 mM HEPES, 10×7.5% NaHCO3 and 2.5 mM Probenecid).
FLIPR Assay —IC50 Determination Protocol
For IC50 determinations the fluorescence is read using FLIPR filter 1 (em […]). A cellular baseline recording is taken for 30 seconds, followed by a 20 μl addition of 10, titrated half-log concentrations of the test compound, yielding cellular concentration ranging from 3 μM to 0.1 nM. […] This consequently leading to a reduction in fluorescence signal and providing a reduced fluorescence reading, compared with no compound, buffer controls. Data is exported by the FLIPR program as a sum of fluorescence calculated under the curve upon the addition of capsaicin. […]

T1 sequence (Q8NER1 whole entry): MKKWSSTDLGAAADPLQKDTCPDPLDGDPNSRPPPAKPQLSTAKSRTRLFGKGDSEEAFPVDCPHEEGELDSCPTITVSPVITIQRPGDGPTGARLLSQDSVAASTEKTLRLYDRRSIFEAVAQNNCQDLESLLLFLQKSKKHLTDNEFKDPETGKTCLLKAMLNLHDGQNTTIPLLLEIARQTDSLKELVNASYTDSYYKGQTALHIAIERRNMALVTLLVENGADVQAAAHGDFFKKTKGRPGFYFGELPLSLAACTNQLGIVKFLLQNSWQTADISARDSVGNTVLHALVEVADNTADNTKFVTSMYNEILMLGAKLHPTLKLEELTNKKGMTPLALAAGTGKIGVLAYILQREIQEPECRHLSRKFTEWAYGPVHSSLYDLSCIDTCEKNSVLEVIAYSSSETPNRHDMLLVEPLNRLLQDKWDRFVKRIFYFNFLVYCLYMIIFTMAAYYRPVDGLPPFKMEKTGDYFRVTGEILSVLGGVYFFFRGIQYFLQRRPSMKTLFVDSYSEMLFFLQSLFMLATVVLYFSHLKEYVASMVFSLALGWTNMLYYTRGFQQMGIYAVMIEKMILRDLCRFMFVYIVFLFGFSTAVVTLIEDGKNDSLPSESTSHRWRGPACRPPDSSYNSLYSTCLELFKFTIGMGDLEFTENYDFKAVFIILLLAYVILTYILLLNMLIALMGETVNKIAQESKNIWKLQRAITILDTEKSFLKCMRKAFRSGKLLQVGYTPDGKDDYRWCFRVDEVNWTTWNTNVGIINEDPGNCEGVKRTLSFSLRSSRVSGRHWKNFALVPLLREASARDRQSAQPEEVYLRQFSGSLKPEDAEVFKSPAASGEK

Compound | IC50 [nM]
Cc1cc(C(F)(F)F)c2c(N)c(C(=O)NCCc3ccccc3)sc2n1 [Compound 11, 3-amino-6-methyl-N-(2-phenylethyl)-4-(trifluoromethyl)thieno[2,3-b]pyridine-2-carboxamide] | 716
Cc1cc(C(F)(F)F)c2c(N)c(C(=O)NCCc3ccccc3C)sc2n1 [Compound 3, 3-amino-6-methyl-N-[2-(2-methylphenyl)ethyl]-4-(trifluoromethyl)thieno[2,3-b]pyridine-2-carboxamide] | 119
